Assay results published in patent publication US20050101655A1, “Migraine treatments including isovaleramide compounds and serotonin agonists” (priority 2003, published 2005).

How the values were obtained:
chronic spinalized rats [1] = assay: polysynaptic flexor-reflex responses (EMG) in chronic spinalized rats; format: in vivo; details: for total reduction of the flexor reflex (total area under the curve): two-hour measurement period, several doses, vs vehicle
Protocol: (§1) Assessment of hyperreflexia, pain, and muscle tone in chronic spinally transected rats was conducted using male albino Holtzman-derived rats (available from Harlan Sprague-Dawley Laboratories) weighing 270-530 grams as subjects. The rats were housed independently and had continuous access to food and water throughout the experiments. All procedures were reviewed and approved by the Institutional Animal Care and Use Committee. Animals were anesthetized using a mixture of isoflurane and oxygen at a flow rate of 4 liters/minute.
(§2) The rats were placed in a stereotaxic frame and anesthesia was maintained. An incision was made so that the paraspinal muscles could be retracted and a laminectomy performed between T6-T9. A one- to two-millimeter portion of the spinal cord was removed by evacuation and replaced with gel foam to reduce bleeding, after which the incision was closed in layers.
Following the transection, rats were placed in a room in which the ambient temperature was raised to about 80° F. with a space heater to maintain body temperature. On the following morning post-surgery, the hindquarters of the spinalized rats were bathed and their urine expressed manually by applying pressure to their bladders. Experiments were conducted between 21 and 28 days after surgery. For the first two weeks post-surgery, 0.25 ml of the antibiotic Sulfatrim Pediatric Suspension was orally administered to the rats to prevent bladder infection. […]
With reference to FIG. 3, polysynaptic flexor-reflex responses, elicited by stimuli that activate high-threshold afferents, were recorded as EMG activity from the ipsilateral hamstring muscle. […] The flexor reflex was recorded, in both the pre-drug and the post-drug periods, every 30 minutes once a stable baseline response was achieved. […] The responses were determined in spinalized rats by observing the flexor-reflex response before treatment and at each of 30, 60, 90, and 120 minutes following administration of isovaleramide (300 mg/kg p.o.), baclofen (10 mg/kg s.c.) and vehicle (water, 12 ml/kg p.o.), respectively. […]

mice = assay: hot plate test in mice (foot licking latency); format: in vivo; details: 600 orally, 60 minutes after administration, hot plate 54° C., compared to vehicle
chronic spinalized rats [2] = assay: observational scoring of hyperreflexia elicited by an innocuous stimulus in chronic spinalized rats; format: in vivo; details: 300 mg/kg i.p.
Protocol: as §1, §2
Following the transection, rats were placed in a room in which the ambient temperature was raised to about 80° F. with a space heater to maintain body temperature. On the following morning post-surgery, the hindquarters of the spinalized rats were bathed and their urine expressed manually by applying pressure to their bladders. Experiments were conducted between 21 and 28 days after surgery. For the first two weeks post-surgery, 0.25 ml of the antibiotic Sulfatrim Pediatric Suspension was orally administered to the rats to prevent bladder infection. […] Within approximately two weeks, all animals regained bladder control and were no longer given antibiotic treatment. […]
Initial assessment of hyperreflexia was performed by the subjective scoring method of rating the resulting hyperreflexia response elicited with an innocuous stimulus, such as a metal probe. […] The response was evaluated for each of four trials using a scale ranging from zero (no response in all four trials) to four (a maximum, tonic-clonic reaction elicited in all four trials). […] The raw or normalized scores were analyzed with a one-way repeated measures ANOVA. […]

[3] = oral absorption / bioavailability of isovaleramide; details: in vivo
migraine symptoms = details: reported; cited from earlier work

## NCC(CC(=O)O)c1ccc(Cl)cc1 (stereo not drawn) [baclofen, reference compound]
Chronic spinalized rats [1]
  total reduction of the flexor reflex (total area under the curve): dose-dependent reduction of the flexor reflex

## CC(C)CC(N)=O [isovaleramide, Isovaleramide]
mice
  foot licking latency: increased foot licking latency
Chronic spinalized rats [2]; chronic spinalized rats
  overt behavioral toxicity or motor impairment: No overt behavioral toxicity or motor impairment
Chronic spinalized rats [2]; 15, 30, 60 and 120 minutes post-administration
  reduction of hyperreflexia scores: 45-65%
Chronic spinalized rats [2]; 1440 minutes (24 hours)
  hyperreflexia scores by the next day: essentially returned to baseline values
Chronic spinalized rats [1]; 300 mg/kg p.o., 30, 60, 90 and 120 minutes, compared with baclofen 10 mg/kg s.c.
  magnitude of the flexor-reflex responses: reduce the magnitude of the flexor-reflex responses
Chronic spinalized rats [1]
  total reduction of the flexor reflex (total area under the curve): dose-dependent reduction of the flexor reflex
[3]
  bioavailability: ~100%

## CNS(=O)(=O)Cc1ccc2[nH]cc(CCN(C)C)c2c1 [sumatriptan]
Migraine symptoms
  patients with relief of the migraine symptoms: approximately 40%
